In US20240245079A1, “METHOD FOR MANUFACTURING HEATED FOOD” (Nisshin Seifun Welna Inc., priority 2021, published 2024):

Assay: Method for measuring solubility of metal salt
Settings: 100 g water at pH 7, 20° C., shaken 1 hour
Description: In a flask are placed 100 g of water at pH 7 and 2 g of a metal salt being tested. The flask is tightly closed and shaken in a thermostat at 20° C. for 1 hour. The contents of the flask are filtered to collect the undissolved metal salt, which is dried and weighed. The weight (g) of the undissolved metal salt is subtracted from the original weight (2 g) to obtain the solubility of the metal salt.

Question: For [O]=[Mg] [Magnesium oxide], which Solubility is on record?
Answer: Its Solubility is 0.0086 g/100 g water.
